In one test the target is T1, human CSNK1D (Homo sapiens, UniProt P48730).
T1 construct: expressed in transfected cells
The experiment in a line: Whole Cell nBRET CSNK1D Binding Assay. To be noted: living CHO cells stably expressing human CSNK1D tagged with nanoluciferase; NanoBret tracer 130 nM; 2 hours at 37 C.

The target in test [1] is T2, human recombinant GST cleaved CSNK1D (Homo sapiens, UniProt P48730).
T2 construct: GST (cleaved yes); purchased University of Dundee clone DU 19064
The experiment in a line: Purified Enzyme Assay (ADP-Glo CSNK1D Kinase Assay). Conditions: 2 nM CSNK1D; peptide substrate 150 μM; ATP 20 μM; 45 minutes at room temperature. Format: biochemical. The procedure, abridged:
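Percent activity derived from ADP-Glo quantification of ADP produced. Reactions: compound dose-response with human recombinant GST-cleaved CSNK1D, ATP and substrate peptide PLSRTL-pS-VASLPGL, incubated 45 min at room temperature.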
In general terms: ADP-Glo turns the ADP formed in a reaction into a luminescent signal.

pIC50: −log10 of the molar value.

Results on eleven molecules are retold here after patent US20230339970A1, “CASEIN KINASE 1 DELTA MODULATORS” (priority 2020, published 2023).

T1 sequence (P48730 whole entry): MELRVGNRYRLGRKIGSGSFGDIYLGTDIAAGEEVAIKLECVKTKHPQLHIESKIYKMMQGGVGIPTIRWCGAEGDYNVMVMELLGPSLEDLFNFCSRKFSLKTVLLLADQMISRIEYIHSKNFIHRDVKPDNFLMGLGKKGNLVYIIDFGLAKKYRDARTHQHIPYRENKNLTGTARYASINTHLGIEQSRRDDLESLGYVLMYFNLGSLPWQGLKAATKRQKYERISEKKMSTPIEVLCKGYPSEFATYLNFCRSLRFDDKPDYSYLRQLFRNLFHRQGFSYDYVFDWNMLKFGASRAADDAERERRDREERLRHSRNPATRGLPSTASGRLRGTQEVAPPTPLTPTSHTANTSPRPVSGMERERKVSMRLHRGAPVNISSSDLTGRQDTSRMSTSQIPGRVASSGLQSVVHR
T2 sequence (P48730 whole entry): as above

Turning to `C[C@@H]1OCc2c(-c3ccnc4[nH]ncc34)c(-c3ccc(F)cc3)nn2[C@H]1C` (single isomer, unassigned) [Example 115, (6*S,7*S)-2-(4-Fluorophenyl)-6,7-dimethyl-3-(1H-pyrazolo[3,4-b]pyridin-4-yl)-6,7-dihydro-4H-pyrazolo[5,1-c][1,4]oxazine], the pIC50 at human CSNK1D was 7.13; in test [1], 8.22.

For `c1csc(-c2nn3c(c2-c2ccnc4[nH]ncc24)CCCC3)n1` [Example 29, 2-(3-(1H-Pyrazolo[3,4-b]pyridin-4-yl)-4,5,6,7-tetrahydropyrazolo[1,5-a]pyridin-2-yl)thiazole], the negative-log IC50 (pIC50) on human CSNK1D is 5.92; in test [1], 7.46.

As for `Cn1cc2c(-c3c(-c4ccc(F)cn4)nn4c3COC(C)(C)C4)ccnc2n1` [Example 158, 2-(5-Fluoro-2-pyridyl)-6,6-dimethyl-3-(2-methylpyrazolo[3,4-b]pyridin-4-yl)-4,7-dihydropyrazolo[5,1-c][1,4]oxazine], the results for the pIC50 (on human CSNK1D; in test [1]) were < 5.00 and 5.16, respectively.

`[2H]C([2H])([2H])C1(C([2H])([2H])[2H])Cn2nc(-c3ccc(F)cc3)c(-c3nc(C)nc4[nH]ncc34)c2CO1` [Example 410, 2-(4-Fluorophenyl)-6,6-bis(methyl-d3)-3-(6-methyl-1H-pyrazolo[3,4-d]pyrimidin-4-yl)-6,7-dihydro-4H-pyrazolo[5,1-c][1,4]oxazine]: the negative-log IC50 (pIC50) at human CSNK1D was 7.77; in test [1], 8.70.

For the molecule `Fc1ccc(-c2nn3c(c2-c2ccnc4[nH]ccc24)CCCC3)nc1` [Example 3, 4-[2-(5-Fluoro-2-pyridyl)-4,5,6,7-tetrahydropyrazolo[1,5-a]pyridin-3-yl]-1H-pyrrolo[2,3-b]pyridine], the values for the pIC50 (on human CSNK1D; in test [1]) were 7.39 and 8.10, respectively.

For the molecule `CC1(O)COCc2c(-c3ccnc4[nH]ncc34)c(-c3ccc(F)cn3)nn2C1` (stereo not shown) [Example 484, 2-(5-Fluoropyridin-2-yl)-7-methyl-3-(1H-pyrazolo[3,4-b]pyridin-4-yl)-7,8-dihydro-4H,6H-pyrazolo[5,1-c][1,4]oxazepin-7-ol], the negative-log IC50 (pIC50) on human CSNK1D was < 5.00; in test [1] it was 6.64.

Turning to `O=C1OCCn2nc(-c3ccc(F)cn3)c(-c3ccnc4[nH]ncc34)c21` [Example 182, 2-(5-Fluoro-2-pyridyl)-3-(1H-pyrazolo[3,4-b]pyridin-4-yl)-6,7-dihydropyrazolo[5,1-c][1,4]oxazin-4-one], the negative-log IC50 (pIC50) on human CSNK1D was < 5.00; in test [1] it was 6.62.

Turning to `COC[C@@]1(C)CCc2c(-c3cc(C)nc4[nH]ncc34)c(-c3ccc(F)cn3)nn2C1` (single isomer, unassigned) [Example 55, (*S)-4-(2-(5-Fluoropyridin-2-yl)-6-(methoxymethyl)-6-methyl-4,5,6,7-tetrahydropyrazolo[1,5-a]pyridin-3-yl)-6-methyl-1H-pyrazolo[3,4-b]pyridine], the pIC50 on human CSNK1D is 6.90; in test [1], 8.52.

In the case of `Fc1ccc(-c2nn3c(c2-c2ccncc2)COCC3)cc1` [Example 369, 2-(4-Fluorophenyl)-3-(4-pyridyl)-6,7-dihydro-4H-pyrazolo[5,1-c][1,4]oxazine], the pIC50 at human CSNK1D was 7.02; in test [1], 7.92.

Take `Fc1ccc(-c2nn3c(c2-c2ccnc4[nH]ncc24)C2CC2C3)nc1` (racemic) [Example 23, 2-(5-Fluoropyridin-2-yl)-3-(1H-pyrazolo[3,4-b]pyridin-4-yl)-3b,4,4a,5-tetrahydrocyclopropa[3,4]pyrrolo[1,2-b]pyrazole]: the figures for the pIC50 (on human CSNK1D; in test [1]) were 7.32 and 8.52, respectively.

Regarding `CC1COc2c(-c3ccnc4[nH]ncc34)c(-c3ccc(F)cn3)nn2C1` (stereo not shown) [Example 196, 2-(5-Fluoropyridin-2-yl)-6-methyl-3-(1H-pyrazolo[3,4-b]pyridin-4-yl)-6,7-dihydro-5H-pyrazolo[5,1-b][1,3]oxazine], the pIC50 at human CSNK1D is 7.40; in test [1], 8.70.

In general, pIC50 refers to the IC50 on a negative log10 scale, so that one unit is a factor of ten.
